In data set [1] the test system is bone resorption as enhanced by PTH (parathyroid hormone) in femurs from female BALB/c mice. In words: Determination of Bone Resorption Suppressive Activity (PTH-enhanced, calcium release from cultured femurs). In kind it is cell-based. The following applies: 168 h; test compound 10 μg/ml, PTH 1 μM, 7 days, mouse femurs. Here is the method: Compounds (I), (XI) and (XXI) or salts thereof excellently suppress bone resorption. Their suppressive action against bone resorption as enhanced by PTH (parathyroid hormone) was determined by the method described below.
Femurs were aseptically isolated from female BALB/c mice at 8-10 weeks of age. After the bone marrow cavity was washed with a Ham F12 medium containing 10% (w/w) thermally inactivated fetal calf serum, 100 unit/ml penicillin G and 100 unit/ml streptomycin (hereinafter referred to as culture broth), each femur was added to 1 ml of the culture broth and precultured for 3 hours at 37° C. in the presence of 5% carbon dioxide and 95% air. Each bone was transferred to 1 ml of the culture broth supplemented with PTH (produced by Peptide Institute, Inc., final concentration 1 μM) and the test compound (final concentration 10 μg/ml) and cultured for 7 more days, after which the total calcium content in the culture broth was determined using Calcium E-Test Wako (produced by Wako Pure Chemical Industries). The bone resorption suppressive activity of the test compound was calculated using the following equation:
Bone resorption suppressive activity (%)=100×(Cp-Cs)/(Cp-Cc)
Cc: Total calcium content in the culture broth containing neither PTH nor test compound
Cp: Total calcium content in the culture broth containing PTH […]

The subject of another data set is mice. The data set can be described thus: Toxicity Study. The data set is classed as in vivo. The following applies: intraperitoneally or orally administered at 400 mg/kg. Here is the method:
TAN-1756A caused no death in mice when it was intraperitoneally or orally administered at 400 mg/kg.
TAN-1803 monohydrochloride caused no death in mice when it was intraperitoneally or orally administered at 400 mg/kg.

For another data set, the target named is T1, cathepsin B (Homo sapiens, UniProt P07858).
T1 construct: purchased Sigma
In words: Determination of Cathepsin B Inhibitory Activity. The following applies: cathepsin B (Sigma), Z-Phe-Arg-7MCA substrate, pH 5.5, 37° C., 20 minutes; read-out: Inhibitory activity potency IC50 Cathepsin B (converted). The data set is classed as biochemical. Here is the method:
To 75 μl of a reaction mixture containing 30 ng of cathepsin B (produced by Sigma), 2 μM DTT, 1 mM ethylenediaminetetraacetate disodium salt, 0.1M sodium acetate buffer (pH 5.5) and various concentrations of sample, 25 μl of 20 μM Z-Phe-Arg-7MCA was added to initiate the reaction. After reaction mixture incubation at 37° C. for 20 minutes, 100 μl of a reaction stopper solution containing 100 mM sodium monochloroacetate was added. The amount of liberated 4-methyl-7-aminocoumarin was determined at an excitation wavelength of 365 nm and a fluorescence wavelength of 450 nm, using a fluorophotometer. The sample concentration required to cause 50% inhibition was expressed as the IC50 value, with the fluorescence value obtained from the same reaction in the absence of the sample taken as 100%.

The target in data set [2] is T2, human recombinant cathepsin L (Homo sapiens, UniProt P07711).
T2 construct: made in house; host or cells: mouse myeloma Sp2/0 cells transformed with pTBN-HCLneo (Sp-HCL26), secreted into the culture supernatant
The data set can be described thus: Determination of Cathepsin L Inhibitory Activity. The data set is classed as biochemical. The following applies: Z-Phe-Arg-7MCA substrate, pH 5.5, 37° C., 20 minutes, read-out: Inhibitory activity potency IC50 Cathepsin L (converted). Here is the method: To 75 μl of a reaction mixture containing 1 ng of human recombinant cathepsin L (as produced in Reference Examples 1 through 7 below), 2 μM dithiothreitol (hereinafter referred to as DTT), 1 mM ethylenediaminetetraacetate disodium salt, 0.1M sodium acetate buffer (pH 5.5) and various concentrations of sample, 25 μl of 20 μM benzyloxycarbonyl-L-phenylalanyl-L-arginine-4-methylcoumaryl-7-amide (hereinafter referred to as Z-Phe-Arg-7MCA, produced by Peptide Institute, Inc.) was added to initiate the reaction. After incubation at 37° C. for 20 minutes, 100 μl of a reaction stopper solution containing 100 mM sodium monochloroacetate was added. The amount of liberated 4-methyl-7-aminocoumarin was determined at an excitation wavelength of 365 nm and a fluorescence wavelength of 450 nm, using a fluorophotometer (FCA; produced by Baxter). The sample concentration required to cause 50% inhibition was expressed as the IC50 value, with the fluorescence value obtained from the same reaction in the absence of the sample taken as 100%.

Broadly, the IC50 is the midpoint of a concentration-inhibition curve.

Counter-ions that a name gives are not always drawn.

T2 sequence (P07711 114-333): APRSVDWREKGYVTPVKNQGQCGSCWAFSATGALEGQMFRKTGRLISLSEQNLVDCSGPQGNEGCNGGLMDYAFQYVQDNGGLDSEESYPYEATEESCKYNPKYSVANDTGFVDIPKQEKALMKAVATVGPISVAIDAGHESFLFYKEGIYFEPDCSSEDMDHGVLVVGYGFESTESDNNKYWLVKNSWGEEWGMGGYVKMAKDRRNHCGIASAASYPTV

Regarding `NCCCCNC(=O)[C@H](Cc1ccccc1)NC(=O)[C@H]1O[C@@H]1C(=O)O` [Compound 1, N-{N-[(2S,3S)-3-trans-carboxyoxirane-2-carbonyl]-L-phenylalanyl}-1,4-diaminobutane], in data set [1], the activity at 10 µg/mL stood at 150%. Also, in the data set on mice, the death in mice entry is given as “no death”.

Consider `NCCCCCCCCNC(=O)[C@H](Cc1ccccc1)NC(=O)[C@H]1O[C@@H]1C(=O)O` [Compound 23, N-(N-[(2S,3S)-3-trans-carboxyoxirane-2-carbonyl]-L-phenylalanyl}-1,8-diaminooctane], for which the 50% inhibitory concentration (IC50) at cathepsin B was 59.2 nM; in data set [2] it was 4.93 nM.

In the case of `O=C(NCCCCNC(=O)[C@H](Cc1ccccc1F)NC(=O)[C@H]1O[C@@H]1C(=O)O)OCc1ccccc1` [Compound 37], the IC50 was 27.9 nM on cathepsin B and 1.99 nM in data set [2].

In the case of `O=C(O)[C@H]1O[C@@H]1C(=O)N[C@@H](Cc1ccc2ccccc2c1)C(=O)N1CCOCC1` [Compound 82, N-{N-[(2S,3S)-3-trans-carboxyoxirane-2-carbonyl]-3-(2-naphthyl)-L-alanyl}morpholine monosodium salt], the IC50 on cathepsin B was 85.3 nM; in data set [2] it was 5.02 nM.

Regarding `CC(C)C[C@H](NC(=O)[C@H]1O[C@@H]1C(=O)O)C(=O)N(CCCN)CCCCN` [Compound 92, N-{N-[(2S,3S)-3-trans-carboxyoxirane-2-carbonyl]-L-leucyl}-N-(3-aminopropyl)-1,4-diaminobutane], in data set [1], the activity at 10 µg/mL stood at 149%. For the same compound, the death in mice result with mice is recorded as “no death”.

(Values after patent US5556853A, “Epoxysuccinic acid derivatives” (Takeda Chemical Industries, Ltd., priority 1993, dated 1996).)
